Assay results: patent US9844556B2, “Preventive/therapeutic method and preventive/therapeutic agent for complications after cataract surgery” (KOWA COMPANY, LTD., priority 2015, dated 2017)

Legend:
[1] = test system: Soemmerring's ring, posterior capsule opacification (PCO); conditions: cited from earlier work
myofibroblasts = conditions: cited from earlier work
bovine lens cells = conditions: cited from earlier work
[2] = test system: Human lens epithelial cells (HLEpiC); assay: Inhibitory action on actin stress fiber formation (phalloidin staining, confocal microscopy); format: cell-based; conditions: treated about an hour
Description: Human lens epithelial cells (HLEpiC (ScienCell Research Laboratories)) were diluted with a medium (Epithelial Cell Medium (ScienCell Research Laboratories)), dispensed to each well of Poly-L-lysine (ScienCell Research Laboratories) coated Imaging Chamber CG at 100 μL/well (about 5000 cells/cm^2), and cultured in a carbon dioxide incubator (37° C., 5% CO2) until about 50% confluent. The medium was removed with vacuum suction and a test substance, a positive control, a comparative control, or the medium (control) at each concentration given below was added to each well at 300 μL/well:
Test substance: Ripasudil with a concentration of 10 μM, 100 μM or 1 mM,
Positive control: Cytochalasin D with a concentration of 2 μM,
These were treated in a carbon dioxide incubator (37° C., 5% CO2) for about an hour, and then washed once with the medium. 4% Paraformaldehyde Phosphate Buffer Solution (Wako Pure Chemical Industries, Ltd.) (hereinafter, referred to as a fixative solution) was added at 300 μL/well, and fixation was carried out at room temperature for 2 minutes. After washing with the medium, 0.5% Triton X-100 (Roche Diagnostics K.K.) was added at 300 μL/well, and penetrated at room temperature for 2 minutes. After washing with the medium, the fixative solution was added at 300 μL/well, and fixation was carried out at room temperature for 20 minutes.
Separately, 25 μL of 14 μM Actin-Stain™ 555 phalloidin (Cytoskeleton, Inc.) (hereinafter, referred to as Phalloidin) was added to 3475 μL of 10 mM phosphate buffered saline (Wako Pure Chemical Industries, Ltd.) to produce 100 nM Phalloidin.
This 100 nM Phalloidin was added to each well washed with the medium at 200 μL/well, and staining was carried out at room temperature in a dark place for about 60 minutes.
After washing with the medium, the chamber was removed, and […] Mounting Medium with DAPI (Vector Laboratories, Inc.) was dropped onto a cover glass with a few drops. A slide glass was placed thereon and this was left to stand at room temperature in a dark place for 30 minutes or more, and adhesion and nuclear staining were carried out and then observed by a confocal laser scanning microscope.

HLEpiC [3] = assay: Determination of G-actin/F-actin ratio using G-Actin/F-Actin In Vivo Assay Kit; format: cell-based, human; conditions: 2 μM, about an hour; control 1.16
Description: HLEpiC was diluted with a medium (Epithelial Cell Medium), and dispensed to a Poly-L-lysine coated T-75 flask at about 5000 cells/cm^2, and cultured in a carbon dioxide incubator (37° C., 5% CO2) until about 50% confluent. A test substance, a positive control or the medium (control) at each concentration given below was added to each flask at 20 mL.
(§1) Test substance: Ripasudil with a concentration of […], 100 μM or 1 mM,
Positive control: CD with a concentration of 2 μM, and
These were treated in a carbon dioxide incubator (37° C., 5% CO2) for about an hour.
To 20 mL of Lysis and F-actin stabilization buffer was added 200 μL of 100 mM ATP stock solution and 200 μL of 100× Protease inhibitor cocktail stock to produce LAS2 buffer, and this was incubated in a carbon dioxide incubator (37° C.) for about 30 minutes. Warmed LAS2 buffer was added at 2.5 mL to each flask in which the medium was removed with vacuum suction.
Next, adherent HLEpiC was completely scraped with a cell scraper and transferred with the LAS2 buffer to a conical tube, and HLEpiC was crushed with a micropipette (hereinafter, referred to as cell solution). This cell solution was incubated in a carbon dioxide incubator (37° C.) for about 10 minutes and then centrifuged for 10 minutes (2000 rpm, room temperature). The supernatant was dispensed into an ultracentrifugal tube at 1.8 mL and centrifuged for an hour with an ultracentrifuge (100,000× g, 37° C.). At this time, F-actin is precipitated and G-actin remains in the supernatant.
The supernatant was transferred to a conical tube while being careful not to suck F-actin precipitates.
To precipitates of each sample was added 1.8 mL of F-actin depolymerizing buffer, and this was incubated under ice-cold conditions for an hour to depolymerize actin.
From each supernatant sample and precipitate sample, 100 μL each was put in a 1.5 mL Eppendorf tube, and 25 μL of 5×SDS sample buffer was added and stirred.
Each sample was boiled in a boiling water bath for 5 minutes.
Each sample was subjected to SDS-polyacrylamide gel electrophoresis, followed by Western blotting.
Next, after treatment using a Western blotting detection reagent (ECL Select Western Blotting Detection Reagent, GE Healthcare Japan), proteins were detected using a Lumino image analyzer. The quantities of G-actin and F-actin were determined using an analysis software (ImageQuant TL, GE Healthcare Japan) and the G-actin/F-actin ratio was calculated.
The variation in the quantity of F-actin required to form actin stress fibers was evaluated by comparison with the G-actin/F-actin ratio of untreated (Control) cells.

[4] = test system: Human lens epithelial cells (HLEpiC); assay: Reversibility of inhibition of actin stress fiber formation after removal; format: cell-based; conditions: recultured about 24 hours after removal
Description: After removal of the test substance, positive control or comparative control in Example 1, the cells were recultured for about another 24 hours, treated in accordance with the operation in Example 1, and then observed by a confocal laser scanning microscope in the same manner as in Example 1 to observe the reversibility of actin stress fibers.

HLEpiC [5] = assay: Reversibility of inhibition of cell migration after removal; format: cell-based, human; conditions: for time after removal at which Detection Zone was filled with HLEpiC: then removal
Description: After the operation in Example 4, the test substance, the positive control, or the comparative control was removed, and after brief washing with the medium, the medium was added at 100 μL/well, and the cells were cultured in a carbon dioxide incubator (37° C., 5% CO2).

HLEpiC [6] = assay: Inhibitory action on cell migration (Oris Cell Migration plate); format: cell-based, human; conditions: about 24 and 48 hours after treatment
Description: HLEpiC was diluted with a medium (Epithelial Cell Medium) and dispensed to Poly-L-lysine coated Oris™ Cell Migration 96 well plate, to which a stopper was firmly attached, at 50 μL/well (25000 cells/well) and cultured in a carbon dioxide incubator (37° C., 5% CO2) for 24 hours. The stopper was removed, and after brief washing with the medium, a solution obtained by adding 5 μL of 10 mM Cell Tracker Green Fluorescent Probe (Lonza Walkersville, Inc.) to 4995 μL of the medium was added at 100 μL/well, and the cells were stained in a carbon dioxide incubator (37° C., 5% CO2) for about 30 minutes. After brief washing with the medium, the medium was further added and the cells were cultured in a carbon dioxide incubator (37° C., 5% CO2) for about 30 minutes.
After brief washing with the medium, a test substance, a positive control, a comparative control or the medium (control) at each concentration given below was added at 100 μL/well.
as §1
Positive control: CD with a concentration of 2 μM,
These were cultured in a carbon dioxide incubator (37° C., 5% CO2). The state of HLEpiC in the Detection Zone in each sample was observed by a confocal laser scanning microscope about 24 hours after the treatment and 48 hours after the treatment.

[7] = test system: hyalocyte-containing collagen gel; conditions: cited from earlier work

CC1CNCCN1S(=O)(=O)c1cccc2cnccc12 (stereo not shown) [H-7]
effect on posterior capsule opacification (PCO) [1]: ineffective
resolving Soemmerring's ring [1]: effective

O=S(=O)(c1cccc2cnccc12)N1CCCNCC1 [HA-1077]
transdifferentiation and contraction of myofibroblasts induced by TGF-β (myofibroblasts): inhibit the transdifferentiation and contraction

O=c1[nH]ccc2c(S(=O)(=O)N3CCCNCC3)cccc12 [HF, Hydroxyfasudil]
contraction induced by cytokines such as PDGF-BB and TGF-β2 (bovine lens cells): inhibited contraction

Cc1cncc2cccc(S(=O)(=O)N3CCCNC[C@@H]3C)c12 [H-1152]
transdifferentiation and contraction of myofibroblasts induced by TGF-β (myofibroblasts): inhibit the transdifferentiation and contraction

O=S(=O)(c1cccc2c(I)cccc12)N1CCCNCC1 [ML-7]
transdifferentiation and contraction of myofibroblasts induced by TGF-β (myofibroblasts): inhibit the transdifferentiation and contraction

C=C1[C@@H](C)[C@H]2[C@H](Cc3ccccc3)NC(=O)[C@]23[C@H](OC(C)=O)/C=C/[C@@](C)(O)C(=O)[C@@H](C)C/C=C/[C@H]3[C@@H]1O [Cytochalasin D, reference compound]
actin stress fibers (observation) ([2]; 2 μM): significantly disappear
G-actin/F-actin ratio (HLEpiC [3]): 25.03
reversibility of actin stress fibers ([4]; 2 μM): recovered
time after removal at which Detection Zone was filled with HLEpiC (HLEpiC [5]; 2 μM treatment): about 48 hours
cell migration into Detection Zone (observation) (HLEpiC [6]; 2 μM): inhibitory action on cell migration was further recognized

O=S(=O)(c1cccc2cnccc12)N1CCCNCC1 [fasudil]
hyalocyte-containing collagen gel contraction [7]: inhibits

C[C@@H](N)[C@H]1CC[C@H](C(=O)Nc2ccncc2)CC1 [Y-27632, reference compound]
actin stress fibers (observation) ([2]; 1 mM): disappear
reversibility of actin stress fibers ([4]; 1 mM): recovered
state of Detection Zone about 48 hours after removal (HLEpiC [5]; 1 mM treatment, about 48 hours after removal): not filled with HLEpiC
time after removal at which Detection Zone was filled with HLEpiC (HLEpiC [5]; 1 mM treatment): 116 h
transdifferentiation and contraction of myofibroblasts induced by TGF-β (myofibroblasts): inhibit the transdifferentiation and contraction
cell migration into Detection Zone (observation) (HLEpiC [6]; 1 mM): inhibitory action on cell migration was also recognized
contraction induced by cytokines such as PDGF-BB and TGF-β2 (bovine lens cells): inhibited contraction
